From US20080306057A1, “P13K Inhibitors for the Treatment of Endometriosis” (LABORATORIES SERONO SA, priority 2005, published 2008)
Where two headings read alike, the source gives them in different places.

Tests used:
endometriosis-like foci = assay: Rat model of endometriosis (autologous uterine horn fragment transplant); assay type: in vivo
Experimental: Endometriosis was induced in rats as described earlier (D'Antonio et al 2000). In brief, autologous uterine horn fragment was transplanted onto the inner surface of the abdominal wall in rat. Three weeks following transplantation, the size and the viability of the engrafted tissue was measured. One week after the confirmation of the tissue attachment, treatments were started. The control group received the vehicle, the PI3K inhibitor-1 was administered orally (po) at a single dose of 30 mg/kg per day. Treatment with the inhibitor was conducted for nine days, animals were anaesthetized 2 hr following the last treatment and blood samples were collected. Surface area of the endometriosis-like foci was measured. The endometriotic-like foci was removed for histology.

endometriosis = settings: cited from earlier work
[1] = system: endometriotic lesions from human endometrial tissue; assay: Xenograft nude mouse model of endometriosis; assay type: in vivo, nude mice
Experimental: Human endometrial tissue was injected in ovarectomized nude mice to establish the disease (Bruner-Tran et al. 2002). In brief, endometrial biopsies obtained from normal volunteers or from endometriotic patients were cut into small pieces and cultured in the presence of estradiol for 24 h. Treated tissues, were injected either subcutaneously or intraperitoneally into ovarectomized nude mice with estradiol implant. Within 2-4 days of injection, ectopic endometriotic lesions develop in animals. Treatment with either progesterone or PI3K inhibitor-1 was started 10 days following the injection of tissue. The compound was administered at a dose of 10 mg/kg and 30 mg/kg/animal for 28 days. […] Following the completion of treatment, animals were sacrificed, lesions developed from the transplanted tissue found in both subcutaneous and intraperitoneal sites, were measured (both size and number).

[2] = system: endometriotic cells (12Z cells); assay: Induction of cell death in endometriotic cells, crystal violet staining; assay type: cell-based, human; settings: for EC50: Homo sapiens, 12Z, crystal violet staining
From the text: It is well established that the glandular and stromal tissues from the eutopic endometrium implant in ectopic sites leading to endometriosis. Survival of the ectopic implants is due to a reduced cell death (apoptosis) of these implants, and is presumed to be due to increased expression of survival cell signaling pathways. Proteins or specific small molecule compounds that induce target-specific cell-death of ectopic endometriotic cells without affecting eutopic endometrium or other normal cells could be used as a treatment for eliminating endometriosis. In this regard, we examined the effect of PI3K inhibitor-1 (5-Quinoxalin-6-ylmethylene-thiazolidine-2,4-dione) on its ability to induce cell death of endometriotic cells (12Z cells), an immortalized human epithelial endometriotic cell (Zeitvogel et al. 2001). These cells grow in culture and secrete cytokines in response to TNFα that have been reported to be elevated in the peritoneal fluid of endometriotic patients. The 12Z cells were treated with PI3K inhibitor-1 for 24 h and cell death was measured by crystal violet staining. Since the peritoneal fluids contain elevated concentrations of TNFα, the inhibitor was also tested in the presence of this cytokine. Dead cells get detached from the tissue culture plate and washed away during staining with crystal violet. The intensity of the color will determine the extent of live cells present in the plate. […] TNFα alone had no effect of cell viability (data not shown).

[3] = 10 mg/kg × 28 days, listed as PI3K inhibitor
[4] = 30 mg/kg × 28 days, listed as PI3K inhibitor

Compound: antide [reference compound]
- Regression of established endometriotic lesions (endometriosis-like foci; for comparison, data not shown): 94%

Compound: C#C[C@]1(O)CC[C@H]2[C@@H]3CCC4=Cc5oncc5C[C@]4(C)[C@H]3CC[C@@]21C [Danazol]
- Recurrence rate (endometriosis; after up to 4 years): 40%-50
- Patients suffering from pain with improved symptoms (endometriosis; endometriosis patients): 66-100%

Compound: O=C1NC(=O)C(=Cc2ccc3nccnc3c2)S1 [PI3K inhibitor-1, 5-Quinoxalin-6-ylmethylene-thiazolidine-2,4-dione]
- Effect on the uterine weight and size of the animals ([1]; 10 mg/kg and 30 mg/kg for 28 days): no effect
- Lesion (% Progesterone) Compared to progesterone treated group, decrease ([1]; 10 mg/kg × 28 days): 53% Decrease
- Lesion size, decrease ([1]; 10 mg/kg × 28 days): 10% Decrease
- Lesion (% Progesterone) Compared to progesterone treated group, decrease [1, 3]: 53%
- Lesion size, decrease [1, 3]: 10%
- Lesion (% Progesterone) Compared to progesterone treated group, decrease ([1]; 30 mg/kg × 28 days): 80% Decrease
- Lesion size, decrease ([1]; 30 mg/kg × 28 days): 30% Decrease
- Lesion (% Progesterone) Compared to progesterone treated group, decrease [1, 4]: 80%
- Lesion size, decrease [1, 4]: 30%
- Extent of cell death induced, with versus without TNFα ([2]; 24 h): greater in the presence of TNFα
- Amount of live cells in culture ([2]; 24 h, either alone or in the presence of TNFα): reduce the amount of live cells in culture
- EC50 ([2]; in the presence of 15 ng/ml of TNFα, 24 h, read-out: Concentration required to induce 50% cell death (EC50), +TNFα): 6.4 µM
- EC50 ([2]; inhibitor alone, 24 h, read-out: Concentration required to induce 50% cell death (EC50), Alone): > 10 µM
- Regression of established endometriotic lesions (endometriosis-like foci; 30 mg/kg per day po, nine days): 64%

Compound: TNFα
- Cell viability ([2]; TNFα alone, data not shown): no effect
